Test results taken from patent US8481732B2 (Incyte Corporation, priority 2009, dated 2013).

These compounds were tested against T1, histamine H4 receptor (Homo sapiens, UniProt Q9H3N8) (assay: H4 Membrane Binding Assay (3H-Histamine displacement)). Details: membranes of recombinant HEK293SFM cells, 10 nM 3H-Histamine, 1.5 hr at room temperature.
T1 construct: expressed in transfected cells; host or cells: HEK293SFM cells (membrane preparation)
Method in brief: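 Membranes from HEK293SFM cells expressing human H4 (also human H1–H3, mouse H4), prepared in ice-cold 50 mM Tris-HCl pH 7.5. [3H]-histamine displacement, nonspecific binding defined with 1000× unlabeled ligand. Bound radioactivity separated on PEI-treated GF/B filters and measured by liquid scintillation counting.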

T1 sequence (Q9H3N8 whole entry): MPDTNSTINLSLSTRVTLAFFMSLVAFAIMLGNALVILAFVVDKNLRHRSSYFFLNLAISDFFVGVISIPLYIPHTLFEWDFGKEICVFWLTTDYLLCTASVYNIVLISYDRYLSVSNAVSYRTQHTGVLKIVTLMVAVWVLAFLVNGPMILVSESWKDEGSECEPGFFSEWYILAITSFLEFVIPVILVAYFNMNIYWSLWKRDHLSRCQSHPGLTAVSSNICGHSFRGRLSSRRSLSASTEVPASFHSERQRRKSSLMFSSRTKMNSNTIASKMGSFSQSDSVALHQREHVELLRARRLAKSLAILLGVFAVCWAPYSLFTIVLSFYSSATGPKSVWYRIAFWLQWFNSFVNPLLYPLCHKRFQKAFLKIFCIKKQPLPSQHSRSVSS

Compared with `CC(NC(=O)c1ccc2c(N3CCN(C)CC3)nc(N)nc2c1)c1cccc(Oc2ccc(Cl)cc2C#N)c1` (stereo not drawn) [Example 197, 2-Amino-N-{1-[3-(4-chloro-2-cyanophenoxy)phenyl]ethyl}-4-(4-methylpiperazin-1-yl)quinazoline-7-carboxamide], `Cc1ccc(C#N)c(Oc2cccc(C(C)NC(=O)c3ccc4c(N5CCN(C)CC5)nc(N)nc4c3)c2)n1` (stereo not drawn) [Example 198, 2-Amino-N-(1-{3-[(3-cyano-6-methylpyridin-2-yl)oxy]phenyl}ethyl)-4-(4-methylpiperazin-1-yl)quinazoline-7-carboxamide] is 4.8-fold higher in IC50: 0.0071 µM for the first, 0.034 µM for the second.

First: CC(NC(=O)c1ccc2c(N3CCN(C)CC3)nc(N)nc2c1)c1cccc(Oc2ncccc2C#N)c1 (stereo not drawn) [Example 199, 2-Amino-N-(1-{3-[(3-cyanopyridin-2-yl)oxy]phenyl}ethyl)-4-(4-methylpiperazin-1-yl)quinazoline-7-carboxamide]
Second: CC(NC(=O)c1ccc2c(N3CCN(C)CC3)nc(N)nc2c1)c1cccc(OCc2cccc(C#N)c2)c1 (stereo not drawn) [Example 201, 2-Amino-N-(1-{3-[(3-cyanobenzyl)oxy]phenyl}ethyl)-4-(4-methylpiperazin-1-yl)quinazoline-7-carboxamide]
The IC50 of the first is 4.5-fold higher: 0.063 µM for the first, 0.014 µM for the second. The second is the more potent here.

`COC(=O)c1cccc(COc2cccc(C(C)NC(=O)c3ccc4c(N5CCN(C)CC5)nc(N)nc4c3)c2)c1` (stereo not drawn) [Example 200, Methyl 3-({3-[1-({[2-amino-4-(4-methylpiperazin-1-yl)quinazolin-7-yl]carbonyl}amino)ethyl]phenoxy}methyl)benzoate] and `COC(=O)c1cccc(COc2ccc3c(c2)C(NC(=O)c2ccc4c(N5CCN(C)CC5)nc(N)nc4c2)CCC3)c1` (stereo not drawn) [Example 204, Methyl 3-((8-(2-amino-4-(4-methylpiperazin-1-yl)quinazoline-7-carboxamido)-5,6,7,8-tetrahydronaphthalen-2-yloxy)methyl)benzoate] are within 1.5-fold of each other in IC50: 0.0071 µM for the first, 0.0093 µM for the second.

`CN1CCN(c2nc(N)nc3cc(C(=O)NC4CCCc5ccc(OCc6cccc(C#N)c6)cc54)ccc23)CC1` (stereo not drawn) [Example 202, 2-Amino-N-(7-(3-cyanobenzyloxy)-1,2,3,4-tetrahydronaphthalen-1-yl)-4-(4-methylpiperazin-1-yl)quinazoline-7-carboxamide] and `CN1CCN(c2nc(N)nc3cc(C(=O)NC4CCCc5ccc(OCc6ccc(C#N)cc6)cc54)ccc23)CC1` (stereo not drawn) [Example 205, 2-Amino-N-(7-(4-cyanobenzyloxy)-1,2,3,4-tetrahydronaphthalen-1-yl)-4-(4-methylpiperazin-1-yl)quinazoline-7-carboxamide] are within 1.5-fold of each other in IC50: 0.0092 µM for the first, 0.011 µM for the second.

`COc1cccc(COc2ccc3c(c2)C(NC(=O)c2ccc4c(N5CCN(C)CC5)nc(N)nc4c2)CCC3)c1` (stereo not drawn) [Example 203, 2-Amino-N-(7-(3-methoxybenzyloxy)-1,2,3,4-tetrahydronaphthalen-1-yl)-4-(4-methylpiperazin-1-yl)quinazoline-7-carboxamide] and `COC(=O)c1ccc(COc2ccc3c(c2)C(NC(=O)c2ccc4c(N5CCN(C)CC5)nc(N)nc4c2)CCC3)cc1` (stereo not drawn) [Example 206, Methyl 4-((8-(2-amino-4-(4-methylpiperazin-1-yl)quinazoline-7-carboxamido)-5,6,7,8-tetrahydronaphthalen-2-yloxy)methyl)benzoate] are within 1.5-fold of each other in IC50: 0.017 µM for the first, 0.024 µM for the second.

`CN1CCN(c2nc(N)nc3cc(C(=O)N4CCc5c(cccc5OCc5cccc(C#N)c5)C4)ccc23)CC1` [Example 207, 3((2-(2-Amino-4-(4-methylpiperazin-1-yl)quinazoline-7-carbonyl)-1,2,3,4-tetrahydroisoquinolin-5-yloxy)methyl)benzonitrile] and `COc1cccc(COc2cccc3c2CCN(C(=O)c2ccc4c(N5CCN(C)CC5)nc(N)nc4c2)C3)c1` [Example 208, (2-Amino-4-(4-methylpiperazin-1-yl)quinazolin-7-yl)(5-(3-methoxybenzyloxy)-3,4-dihydroisoquinolin-2(1H)-yl)methanone] are within 1.5-fold of each other in IC50: 0.036 µM for the first, 0.024 µM for the second.
